Measured values taken from article PMC9750872, “Ras-mutant cancers are sensitive to small molecule inhibition of V-type ATPases in mice” (Nature biotechnology, 2022).
Like-named read-outs stand apart in the source and are kept apart here.

Legend:
MEFs KRAS G13D = test: Cell proliferation of Ras-less MEFs expressing human KRAS/BRAF; conditions: Mus musculus
Method: (§1) Cell proliferation assays of stable cell lines treated with V-ATPase inhibitors 249C and BafA1, HCQ analog (DC661), KRASG12C inhibitor (AMG510) and autophagy inducer (CMA). For each bar, n = 3. Representative of 3 biological replicates (mean ± SD). Two-sided t-test with no adjustments for multiple comparisons.
(§2) Logarithmically growing cells were plated in antibiotic-free medium supplemented with 2% fetal bovine serum at a density of 5,000 cells per well. The next day, cells were treated in triplicates with increasing doses of in-house small molecule inhibitor drugs and a DMSO vehicle control for 3 days and subsequently assessed for cell viability by measurement of ATP with CellTiter-Glo Luminescent Cell Viability Assay (Promega). Signal intensity was read on a Glomax™ 96 Microplate Luminometer (Promega) with GLOMAX software (version 1.9.3) and percent cell survival was calculated based on the reading of vehicle control cells set as 100% using Excel (2012) and GraphPad Prism (version 6)Each compound was tested a minimum of 2 times with n = 3. All cell proliferation assays (cancer cell lines or MEFs) were done in a similar way.

MEFs KRAS Q61R = test: as above; conditions: Mus musculus
Method: as §2

MEFs KRAS Q61L = test: as above; conditions: Mus musculus
Method: as §2

[1] = test system: panel of 53 cancer cell lines; test: 249C sensitivity in a panel of 53 cancer cell lines; format: cell-based; conditions: Homo sapiens, read-out: median IC50
Method: Figure 1: Optimization of Potency and Drug Properties of Small Molecule Inhibitors of Ras- and Raf-mutant Cells using Viability Screens. (A) Cell viability screen of ~300 small molecules in A549 (KRASG12S), LOX IMVI (BRAFV600E), and MelJuso (HRASG13D and NRASQ61L). Cells were treated with vehicle DMSO or increasing concentrations of small molecules in triplicate for 72 h and ATP content/viability was measured using CellTiter-Glo Luminescent Cell Viability Assay. The results shown for all cell viability figures are representative of at least two independent experiments. […] (F) Quantitative whole proteome analysis of the effects of small molecule treatment by mass spectrometry. A549 cells were treated with DMSO or 68 (30 μM), 226C (1μM) or 249C (1μM) for 48 h prior to analysis of proteomes with TMT labeling followed by quantification relative to the DMSO control. […]
The Cancer Cell Line Encyclopedia (CCLE, http://www.broadinstitute.org/ccle) was used to download somatic mutation data for over 1000 cancer cell lines [(CCLE_DepMap_18q3_maf_20180718.txt) from CCLE at https://depmap.org/portal/download/ (2018)][61]. We filtered the data to retain only mutations (single nucleotide variants, SNVs, and insertion deletions, indels) detected in 53 cell lines that were included in our MTS assays (Fig. 1). […] Genes with multiple mutations in the same cell line were only counted once. […]

[2] = Plasma concentration in mice; format: in vivo; conditions: female, athymic nude (NU/NU, Charles River strain # 088), mouse, intraperitoneal, 10 mg/kg, after 4 hours, read-out: maximum concentration (Cmax) in blood (or plasma)
Method: 5 × 10^6 A549 cells were subcutaneously injected into the lower left flank of 6–8-week old athymic nude female mice (Charles River strain # 088, homozygous NU/NU). To assess establishment of tumors, mice were examined 5 days post-inoculation and were randomly segregated into two treatment groups [vehicle control, 10 mg/kg 249C IP, n = 7 per group] and were treated twice daily with the drug in NPM or vehicle control (5% weight aqueous solution of carboxymethyl cellulose). Tumor volumes were calculated using the formula (L × W × H)/2 with recorded caliper measurements. Survival curves and statistical analyses were performed using Excel. Animals were maintained on a standard chow diet; 12:12 dark/light cycle and in group housing in hepa-filtered cages. All animal procedures were performed under IACUC approved protocols and guidelines. Animals from both groups were weighed every 3 days. Plasma concentration was measured from blood collected using standard and established protocols.

MEFs KRAS G12V = test: Cell proliferation of Ras-less MEFs expressing human KRAS/BRAF; conditions: Mus musculus
Method: as §1, §2

468 human kinases = test: KINOMEscan profiling; format: binding; conditions: 249C at 10,000 nM
From the text: The KINOMEscan™ Profiling Service consisting of 468 human kinases was used to assess 249C inhibitor activity to check for off-target effects as previously described.
Supplementary Fi g u re 12: Compound 249C assessed for off-target effects using the KIN OME scanTM screening platform. (A) Selectivity (S-score) for 249C wher e the sco re is a qu antitative measu re o f compound selectivity against human kinases. It is calculate b y dividing the number of k inases that compounds bi nd to b y the total number of distinct kinases tested, excluding mutant variants (S = number of hits / number of assa ys). 1 hit out of >400 kinases is reported for test compound (249C) = 0.002. S(35) = number of non- mutant kinases with % ctrl <35/number of non- mutant kinases; (B) Kinome interaction map for 249C at 10,000 nM. Each red dot indicates a kinase found to bind, where larger dots indicate higher affinit y interactions.
1 Tyrosine Kinase (TK) out of >400 kinases ( created in TREEspotTM ) with low affinity. This is calculated using
Dissociation constants (Kds) were determined using 249C at 30,000 nM, Hill slopes were set to - 1 and curves were fitted using a non- linear least square fit with the […]
(1 picture or pasted object on this page, not shown here)

hERG = hERG (Homo sapiens, UniProt Q12809); test: hERG fluorescence polarization assay; conditions: human
[3] = Maximum tolerated dose study; format: in vivo
From the text: MTD studies were outsourced and performed at a local CRO based on their established protocols.

Sequence of hERG (Q12809 whole entry): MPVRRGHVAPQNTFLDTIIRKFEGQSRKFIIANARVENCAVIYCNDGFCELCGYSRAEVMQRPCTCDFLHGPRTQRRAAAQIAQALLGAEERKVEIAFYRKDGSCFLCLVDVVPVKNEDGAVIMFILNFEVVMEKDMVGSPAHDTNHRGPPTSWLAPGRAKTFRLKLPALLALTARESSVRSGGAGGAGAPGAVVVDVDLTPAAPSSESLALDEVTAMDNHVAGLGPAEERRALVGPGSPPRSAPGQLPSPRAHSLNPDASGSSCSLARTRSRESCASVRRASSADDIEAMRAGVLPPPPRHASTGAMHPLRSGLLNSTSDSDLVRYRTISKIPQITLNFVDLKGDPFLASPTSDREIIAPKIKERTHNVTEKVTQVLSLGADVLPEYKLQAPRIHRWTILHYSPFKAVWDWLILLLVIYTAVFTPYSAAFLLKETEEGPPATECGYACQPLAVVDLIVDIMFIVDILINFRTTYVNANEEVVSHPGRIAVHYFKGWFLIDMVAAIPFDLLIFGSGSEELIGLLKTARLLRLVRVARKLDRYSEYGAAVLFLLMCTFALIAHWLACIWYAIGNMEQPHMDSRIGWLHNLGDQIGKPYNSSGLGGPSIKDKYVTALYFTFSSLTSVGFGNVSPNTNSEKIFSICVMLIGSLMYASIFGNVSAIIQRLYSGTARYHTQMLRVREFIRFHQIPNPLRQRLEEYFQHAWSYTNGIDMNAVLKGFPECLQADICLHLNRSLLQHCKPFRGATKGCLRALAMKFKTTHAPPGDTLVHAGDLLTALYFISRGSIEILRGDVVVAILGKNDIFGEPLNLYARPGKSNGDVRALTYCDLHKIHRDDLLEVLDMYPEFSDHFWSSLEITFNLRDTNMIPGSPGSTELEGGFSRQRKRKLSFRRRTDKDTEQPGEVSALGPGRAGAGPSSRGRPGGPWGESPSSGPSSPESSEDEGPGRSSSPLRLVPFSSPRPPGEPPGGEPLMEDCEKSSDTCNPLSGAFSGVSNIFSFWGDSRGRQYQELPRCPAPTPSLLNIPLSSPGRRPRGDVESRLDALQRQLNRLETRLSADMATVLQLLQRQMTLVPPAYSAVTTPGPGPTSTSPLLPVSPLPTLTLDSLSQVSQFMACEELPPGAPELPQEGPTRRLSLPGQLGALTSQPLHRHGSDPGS

CN1CCOC(CNC(=O)C2(C)C(c3ccc(Cl)o3)C(c3ccc(F)cc3F)=NN2c2ccc(F)cc2F)C1 (centres unmarked) [Compound 249C]
IC50 (MEFs KRAS G13D): 0.07 µM
IC50 (MEFs KRAS Q61R): 0.55 µM
IC50 (MEFs KRAS Q61L): 0.31 µM
IC50 ([1]; KRAS/HRAS/NRAS/BRAF mutant cells): 0.065 µM
IC50 ([1]; cells with no mutations in these genes): 0.365 µM
Cmax [2]: 20 µM
IC50 (MEFs KRAS G12V): 0.15 µM
number of kinases found to bind out of >400 kinases (468 human kinases): 1
inhibition at 30 µM (hERG): 0%
body weight ([3]; 150 mg/kg, after 21 days in vivo): no significant difference in body weight
MTD at 21 days ([3]; mouse, in vivo, mice): 150 mg/kg
